Data taken from the supplement of paper PMC8960247.
Structures can show the parent of a compound that is named as a salt. ± gives the standard error.

Columns and labels:
621-102 (TSC2-deficient) = experiment: relative viability vs DMSO; higher = less cytotoxic; conditions: serum: 10% FBS, 72 h
621-103 (TSC2-rescued) = experiment: as above; conditions: serum: 10% FBS, 72 h
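Also: immortalized renal angiomyolipoma cells stably carrying empty vector or TSC2, dosed in 384-well plates in DMEM, viability normalized to vehicle-treated wells within each plate.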

SMILES | relative viability (621-102 (TSC2-deficient); 0.0001 µM) [%] | relative viability (621-102 (TSC2-deficient); 0.001 µM) [%] | relative viability (621-102 (TSC2-deficient); 0.01 µM) [%] | relative viability (621-102 (TSC2-deficient); 0.1 µM) [%] | relative viability (621-102 (TSC2-deficient); 1 µM) [%] | relative viability (621-102 (TSC2-deficient); 10 µM) [%] | relative viability (621-103 (TSC2-rescued); 0.0001 µM) [%] | relative viability (621-103 (TSC2-rescued); 0.001 µM) [%] | relative viability (621-103 (TSC2-rescued); 0.01 µM) [%] | relative viability (621-103 (TSC2-rescued); 0.1 µM) [%] | relative viability (621-103 (TSC2-rescued); 1 µM) [%] | relative viability (621-103 (TSC2-rescued); 10 µM) [%]
CC(C)C[C@@H](C=O)NC(=O)[C@H](CC(C)C)NC(=O)[C@H](CC(C)C)NC(=O)OCc1ccccc1 [MG-132] | 104 ± 2.3 | 102 ± 4 | 99.9 ± 1.6 | 94.63 ± 0.69 | 4.41 ± 0.73 | 1.52 ± 0.059 | 99.8 ± 3.3 | 93.4 ± 2.7 | 95.3 ± 4.2 | 53.7 ± 8.3 | 2 ± 0.3 | 1.393 ± 0.0089
Nc1ccccc1NC(=O)c1ccc(CNc2nccc(-c3cccnc3)n2)cc1 [MGCD0103 (Mocetinostat)] | 102.2 ± 1 | 100.9 ± 0.78 | 93.91 ± 0.76 | 83.5 ± 1.2 | 82.8 ± 1.6 | 34.1 ± 1.1 | 99.5 ± 1.3 | 102 ± 1.1 | 105.6 ± 0.9 | 93.1 ± 2.1 | 68.6 ± 0.98 | 18.5 ± 0.42
O=C(CN1C(=O)C2(CCCC2)NC[C@H]1c1cc(F)cc(F)c1)Nc1ccc2c(c1)C[C@@]1(C2)C(=O)Nc2ncccc21 [MK 3207 hydrochloride] | 114 ± 1.5 | 114 ± 1.4 | 114.8 ± 0.14 | 113 ± 3.3 | 116.5 ± 0.26 | 104 ± 2.5 | 103 ± 1.3 | 103 ± 1.4 | 101.4 ± 0.9 | 101.2 ± 0.77 | 102 ± 2 | 102 ± 1.4
O=C(O)CC[C@H]1CC[C@@](c2cc(F)ccc2F)(S(=O)(=O)c2ccc(Cl)cc2)CC1 [MK-0752] | 108 ± 3.6 | 104 ± 3.3 | 102 ± 3.8 | 98.1 ± 2.5 | 101.6 ± 0.5 | 97 ± 5 | 115 ± 4.2 | 108 ± 0.7 | 107 ± 1.9 | 111.21 ± 0.076 | 106 ± 5.4 | 111 ± 1.3
NC1(c2ccc(-c3nc4ccn5c(=O)[nH]nc5c4cc3-c3ccccc3)cc2)CCC1 [MK-2206] | 102.1 ± 0.84 | 102 ± 4.5 | 101 ± 2.4 | 98.62 ± 0.66 | 95.7 ± 1.4 | 59 ± 3.6 | 79.7 ± 4.3 | 81.98 ± 0.32 | 79.4 ± 1.1 | 77.6 ± 1.3 | 74 ± 2.4 | 25.2 ± 3.4
S=C(NCc1ccc2c(c1)OCO2)N1CCN(c2ncnc3c2oc2ccccc23)CC1 [MP-470] | 105 ± 1.2 | 116 ± 4.3 | 112 ± 2.3 | 125 ± 1.3 | 118 ± 4.8 | 116.2 ± 0.7 | 88.5 ± 5.1 | 104 ± 1.4 | 103.8 ± 0.57 | 106 ± 1.4 | 105.95 ± 0.02 | 112 ± 3.2
Nc1ccccc1NC(=O)c1ccc(CNC(=O)OCc2cccnc2)cc1 [MS-275] | 103 ± 3.7 | 109.1 ± 0.37 | 96.5 ± 1 | 82.7 ± 3.8 | 83 ± 2.6 | 64.11 ± 0.47 | 100.1 ± 0.8 | 99.4 ± 1.4 | 98.42 ± 0.37 | 95.9 ± 1.2 | 81.09 ± 0.74 | 39.1 ± 0.61
COC(=O)C1=C(C)NC(C)=C(C(=O)OCCN2CCN(C(c3ccccc3)c3ccccc3)CC2)C1c1cccc([N+](=O)[O-])c1 (stereo not drawn) [Manidipine HCl (CV-4093)] | 110.7 ± 1 | 110.4 ± 0.56 | 104.3 ± 0.49 | 109 ± 2 | 107 ± 4 | 94.55 ± 0.56 | 90.9 ± 2 | 90 ± 1.3 | 98 ± 1.7 | 100.85 ± 0.1 | 89.9 ± 1.2 | 74.2 ± 1.2
COC(=O)C1=C(C)NC(C)=C(C(=O)OCCN2CCN(C(c3ccccc3)c3ccccc3)CC2)C1c1cccc([N+](=O)[O-])c1 (stereo not drawn) [Manidipine] | 101 ± 4 | 102 ± 1.7 | 99.9 ± 1.5 | 97.7 ± 1.7 | 93.8 ± 1.4 | 96.95 ± 0.61 | 109 ± 3.1 | 108 ± 2.9 | 106 ± 2 | 108 ± 2.5 | 103 ± 2.2 | 101 ± 6.2
